The structures appear in SMILES notation.

Assay [1] has as its system DNA-LNP-induced plasma cytokine/chemokine levels. Description: In vivo RO3150 and GSK690693 inhibition of DNA-LNP-induced cytokine release. The conditions noted are these: pre-treatment before DNA-LNP: dexamethasone 200 μg IP, GSK690693 312.5 μg IP (about one hour prior), RO3150 60 μg IV (right before); plasma at 4 hours; FIGS. 3A-3H. On the set-up: species or system BALB/c mice. The procedure:
BALB/c mice were pre-treated with dexamethasone, GSK690693, or RO3150 before DNA-LNP administration, and plasma cytokine levels were measured at 4 hours post DNA-LNP treatment. The DNA-LNP was made up of (1) DNA plasmid (nanoplasmid expression cassette encoding hFIX); and (2) GenVoy-ILM™ LNP. GenVoy-ILM™ LNP contains ionizable lipid at 50%; DSPC at 10%; cholesterol 37.5%; and stabilizer (PEG-Lipid) at 2.5% (see Roces et al., Pharmaceutics, 2020 12, 1095). Pretreatment was carried out using 200 μg dexamethasone administered intraperitoneally about one hour prior to DNA-LNP administration; using 312.5 μg GSK69063 administered intraperitoneally about one hour prior to DNA-LNP administration; or using 60 μg […] administered intravenously right before DNA-LNP administration.

The test system of assay [2] is interferon regulatory factor (IRF) pathway in THP1-Dual cells. Description: In vitro H-151 inhibition of DNA-LNP-induced IRF activation (Lucia luciferase in THP1-Dual cell supernatant). The conditions noted are these: 25 ng DNA-LNP/well, 24 hours, FIG. 1. The class given is cell-based. The procedure:
THP1-Dual™ cells (InvivoGen) were seeded in 96-well plates at a density of 45,000 cells/well. After overnight incubation, the cells were treated with 25 ng DNA-LNP/well in the presence of 0, 0.2 or 2.1 ng of small molecule STING inhibitor H-151 (InvivoGen), where the H-151 was provided either a) co-encapsulated with the DNA in the LNPs, or b) provided in a soluble form. After 24 hours incubation, activation of the interferon regulatory factor (IRF) pathway (“fold IRF activity”) was determined by measuring luminescence signal (Lucia luciferase) in the cell culture supernatant. The DNA-LNP was made up of (1) DNA plasmid (nanoplasmid expression cassette encoding human coagulation Factor IX (hFIX)) and (2) Lipid 5 (further described in Sabnis et al. and I.A. infra.), 50%; C14-PEG2000, 1.5%; cholesterol, 38.5%; and DSPC, 10%.

For assay [3], the system named is DNA-LNP-induced plasma cytokines. The assay is described as follows: In vivo LNP-encapsulated H-151 inhibition of DNA-LNP-induced cytokine release. On the set-up: species or system BALB/c mice. The following applies: H-151 encapsulated in 10 μg DNA-LNP, about 1-2 μg/mouse, 4 hours post injection. The procedure:
BALB/c mice were injected with 10 μg DNA-LNP or 10 μg DNA-LNP encapsulating H-151. H-151 was provided at a dose of about 1-2 μg/mouse (about 0.04-0.08 mg/kg mouse) Cytokine levels in plasma were measured at 4 hours post injection. FIGS. 2A, 2B, 2C, and 2D illustrate the ability of H-151 encapsulated with the DNA-LNP to inhibit DNA-induced IFN-β (FIG. 2A), IFN-α (FIG. 2B), IFN-γ (FIG. 2C) and IL-6 (FIG. 2D). The DNA-LNP was as described in Example 1, above.

With `CCn1c(-c2nonc2N)nc2c(C#CC(C)(C)O)ncc(OC[C@H]3CCCNC3)c21` [GSK690693], the “cytokine/chemokine levels induced by DNA-LNP” value in assay [1] was “reduced most cytokine/chemokine levels except IL-6 and KC/GRO”.

As for `CCc1ccc(NC(=O)Nc2c[nH]c3ccccc23)cc1` [H-151], the “effect on LNP-DNA-induced IRF activation (fold IRF activity), compared with soluble H-151” value in assay [2] (H-151 co-encapsulated with the DNA in the LNP, 0.2 or 2.1 ng/well) is “more pronounced”. Also, the “effect on LNP-DNA-induced IRF activation (fold IRF activity)” value in assay [2] (soluble H-151, 0.2 or 2.1 ng/well) is recorded as “had an inhibitory effect”. Moreover, in assay [3] (FIG. 2A), the “DNA-induced IFN-β in plasma” value was “inhibit”. Also, the “DNA-induced IFN-α in plasma” value in assay [3] (FIG. 2B) is given as “inhibit”. Also, the “DNA-induced IFN-γ in plasma” value in assay [3] (FIG. 2C) is “inhibit”. The “DNA-induced IL-6 in plasma” value in assay [3] (FIG. 2D) was “inhibit”.

The values are drawn from patent US20240350667A1, “Method of Enhancing Gene Therapy by Targeting cGAS-STING Pathway” (Spark Therapeutics, Inc., priority 2021, published 2024).
